Test [1] concerns 5-hydroxy-tryptamine or histamine induced bronchoconstriction. Kind of test: Broncho-dilation activity: inhibition of induced bronchoconstriction (Konzett-Rossler preparation). It counts as in vivo. Particulars: Cavia porcellus, iv; anaesthetised artificially respired guinea-pig; read-out: ED 50 value for inhibition of bronchoconstriction. The text has this:
The compound of Example 4 was examined for its ability to inhibit 5-hydroxy-tryptamine or histamine induced bron- choconstrictioh in the anaesthetised artifically respired guinea-pig (Konzett-Rossler preparation).

Test [2] concerns indomethacin induced gastric damage. Kind of test: Anti-ulcer activity: inhibition of indomethacin induced gastric damage (method of Eleghe). It is filed as in vivo. Particulars: Rattus norvegicus, 30 minutes before 15mg/kg indomethacin s.c., rats sacrificed 4 hours later. The method, then:
Anti-ulcer activity of the compound of Example 4 was assessed by the inhibition of indomethacin induced gastric damage in the rat according to the method of Eleghe (1974) Israeli J. Med. Sci. 10. 1451. Rats were starved overnight given 15mg/kg indomethacin subcutaneously and sacrificed 4 hours later. Stomachs were reflated with n. saline, cut along the greater curvature pinned out and scored for gastric damage.
Groups of 7 rats were used for each treatment and the test compound or vehicle was administered 30 minutes prior to giving the indomethacin. Varying doses of test compound were administered orally and control groups receiving vehicle only were set up simultaneously. Mean values for each treatment were obtained and the Mann Witney test applied for significance of difference between the values obtained with the treatments.

From patent EP0006718A1, “1.2.4-Triazolidine-3.5-dione derivatives, process for their preparation and pharmaceutical compositions containing them” (BEECHAM GROUP PLC, priority 1978, dated 1980) come the findings set out here.

SMILES strings stand for the structures.

As to `Cn1c(=O)n(CCCCCCC(=O)O)n(CCC(C)(O)COc2ccccc2)c1=O` (stereo not shown) [Example 4, 1-(6'-carboxyhexyl)-2-(3"-hydroxy-3"-methyl-4"-phenoxybutyl)-4-methyl'-1,2,4-triazolidine-3,5-dione], in test [1], the ED50 is 0.039 mg/kg. Besides, the inhibition at 25 mg/kg in test [2] (25 mg/kg p.o.) is 56%. This compound also registered an inhibition at 50 mg/kg in test [2] (50 mg/kg p.o.) of 50%. Further, at 100 mg/kg the inhibition in test [2] (100 mg/kg p.o.) was 92%.
